Source: US9624244B2, “Benzo [B] isoxazoloazepine bromodomain inhibitors and uses thereof” (Constellation Pharmaceuticals, Inc., priority 2012, dated 2017)

Columns and labels:
BRD4(BD1) = target: T1, BRD4(BD1) (Homo sapiens, UniProt O60885); test: BRD4 AlphaLisa binding assay; conditions: BRD4(BD1) 30 nM, biotinylated H4-tetraacetyl peptide 200 nM, read-out: AS IC50
T1 construct: His; made in house
Experimental: IC50 Measurements for Inhibitors Using BRD4 AlphaLisa Binding Assay
Specifically, in a 384 well ProxiPlate BRD4(BD1) (30 nM final) was combined with peptide (200 nM final) in 40 mM HEPES (pH 7.0), 40 mM NaCl, 1 mM DTT, 0.01% (w/v) BSA, and 0.008% (w/v) Brij-35 either in the presence of DMSO (final 1.2% DMSO) or compound dilution series in DMSO. After 20 minute incubation at room temperature Alpha streptavidin donor beads and AlphaLisa anti-Flag acceptor beads were added to a final concentration of 10 ug/mL each. After three hours equilibration plates were read on an Envision instrument and IC50s calculated using a four parameter non-linear curve fit.

[1] = system: IL-6 secretion, THP-1 cells; test: Cell-based IL-6 quantification assay (ELISA, Mesoscale) in LPS-stimulated THP-1 cells; conditions: Homo sapiens, LPS 4 μg/mL, 16 h, ELISA value/CellTiter-Glo ratio
Experimental: Cell-Based IL-6 Quantification Assay (ELISA, Mesoscale Assay):
100,000 THP-1 cells were seeded in RPMI1640-10% FBS in 96-well plates. LPS (E. Coli Invitrogen) in RPMI-10% FBS at a final concentration of 4 μg/mL was added to the wells and the cells are then incubated in the presence of various concentrations of compounds for 16 h. Plates are spun ([…], 5 min), an aliquot of 25 uL supernatant is transferred in to an ELISA plate (Mesoscale technology, MSD) and the detection of IL-6 is performed using manufacturer's instructions. The amount of cells in each well is assessed using CellTiter-Glo® (Promega). The ratio of ELISA value/CellTiter-Glo value is used to calculate the percent of inhibition of IL-6 secretion.

[2] = system: MYC mRNA, MV4:11 (AML) or Raji (Burkitt's lymphoma) cells; test: cMyc RNA quantification assay (QuantiGene); type: cell-based; conditions: MV4:11 or Raji cells, 4 h, MYC mRNA normalized to DMSO
Experimental: cMyc RNA Quantification Assay (QuantiGene® Assay):
MV4:11 (AML) or Raji (Burkitt's lymphoma) cells were seeded in a 96-well plate and incubated in the presence of various concentrations of compounds for 4 h. Relative mRNA levels were quantitated by using QuantiGene 2.0 assay (Affymetrix) according to the manufacturer's recommendation. Signals were detected by using an Envision plate reader (Perkin-Elmer). Biological duplicates were averaged and normalized to vehicle (DMSO) control to calculate percent MYC mRNA levels.

Row | IC50 (BRD4(BD1)) [nM] | IC50 [1] [nM] | Structure (SMILES) | EC50 [2] [nM]
1 | 80 | 340 | Cc1noc2c1-c1ccc(-c3cnn(C)c3)cc1N(c1ccc(C#N)cc1)CC2CCO (stereo not drawn) [Compound 138, 4-(4-(2-hydroxyethyl)-1-methyl-8-(1-methyl-1H-pyrazol-4-yl)-4H-benzo[b]isoxazolo[4,5-d]azepin-6(5H)-yl)benzonitrile] | 310
2 | 1000 | > 1000 | Cc1noc2c1-c1ccc(-c3ccc(N)nc3)cc1N(c1ccc(C#N)cc1)CC2CC(=O)N(C)C (stereo not drawn) [Compound 139, 2-(8-(6-aminopyridin-3-yl)-6-(4-cyanophenyl)-1-methyl-5,6-dihydro-4H-benzo[b]isoxazolo[4,5-d]azepin-4-yl)-N,N-dimethylacetamide] | > 4000
